Assay results: patent US11597745B2, “β-modified phosphoric acid compound precursor, β-modified phosphoric acid compound, reaction inhibitor and medicine containing the same, and method for inhibiting reaction” (priority 2018, dated 2023)
pEC50: −log10 of the molar value.

Key:
[1] = system: HIV-1 (NL4-3) WT; test: Anti-HIV activity measurement, TZM-bl cells, luciferase; format: cell-based; details: for pEC50: Human immunodeficiency virus 1, NL43, TZM-bl, read-out: EC50 for HIV
Method: (§1) TZM-bl cells were cultured in a medium in which fetal bovine serum (Japan Bio Serum) having a final concentration of 10% had been added into Dulbecco's modified Eagle's Medium (DMEM) (SIGMA/Cat. No. D5796), under the conditions of 37° C. and 5% CO2. TZM-bl cells were plated in a 96-well microplate (1.3×10^4 cells/100 μL DMEM+10% FBS). On the following day, a drug solution, and HIV-1 (NL4-3, 10 ng) were added to the culture medium in this order. After two days, […] of culture supernatant was removed, 100 μL of 1×Steady Glo (Promega/Cat. No. E2510) was added into the resultant medium, luciferase in 80 μL of scraped cell lysate was quantified with a dedicated plate (Coster/Cat. No. 3912) IESEL, VERITAS Microplate Luminometer (Promega), and the anti-HIV-1 activity (EC50) of the drug was calculated. Experiments were performed on multiple compounds by using various types of viruses. In Table (A), the “AZT” means azidothymidine, the “Lamivudine” means lamivudine, and the “Didanosine” means didanosine.

[2] = system: HIV M41L/T215Y; test: as above; format: cell-based, HIV-1; details: Human immunodeficiency virus 1, TZM-bl, read-out: EC50 for HIV
Method: as §1

[3] = system: HIV M41L/T69SSG/T215Y; test: as above; format: cell-based, HIV-1; details: for pEC50: Human immunodeficiency virus 1, TZM-bl, read-out: EC50 for HIV
Method: as §1

[4] = system: HIV M184V; test: as above; format: cell-based, HIV-1; details: Human immunodeficiency virus 1, TZM-bl, read-out: EC50 for HIV
Method: as §1

[5] = system: HBV (genotype C) in EB-HBCe cells; test: Anti-HBV activity: HBV DNA of viral particles in culture supernatant of EB-HBCe cells by qPCR; format: cell-based, hepatitis B virus; details: FIG. 5; for anti-HBV activity (HBV DNA): various final concentrations, 9 days, activity higher at higher concentration
Method: A cell line EB-HBCe, which is derived from a human liver cancer cell HuH-7 and in which the HBV genome (genotype C) constantly replicates, was plated in a 24-well plate, respective compound were added at various final concentrations into the plate, and the cell line EB-HBCe was cultured for 9 days. During the culture, the medium was replaced with new one and the above compounds were added at the same concentration into the plate, every three days.
The culture supernatant was collected, the viral particles were precipitated by the addition of a PNE solution (8.45% PEG 6000, 0.445 M NaCl, 13 mM EDTA), and then the nucleic acids outside the particles were removed by the treatment with DNase I (TAKARA BIO INC.) and RNase A (TAKARA BIO INC.) at 37° C. for 1 hour. Further, after the overnight treatment with Proteinase K, the DNA was extracted with phenol/chloroform, and precipitated with ethanol. The precipitate was solubilized, and then the HBV DNA was quantitatively measured by using SYBR qPCR Mix Kit (TOYOBO CO., LTD.). In FIG. 5, the “SelenoA” indicates the results of addition of compound 13, and the “entecavir” indicates the result of addition of entecavir.

[6] = Cytotoxicity evaluation, MTT assay; format: cell-based; details: human; MT-4 cells, MTT, 5th day of culture
Method: (§2) In MTT assay, Celltiter 96 Non-radioactive Cell Proliferation Assay (Promega) was used. MT-4 cells were infected with HIV-1 NL4-3 at multiplicity of infection (MOI)=0.001. HIV-1-infected (37° C., 1-1.5 hours) or -uninfected MT-4 cells (2.5×10^5/ml, 100 μL) were aliquoted into a 96-well microplate (final DMSO concentration: 0.5%), and the culture was started at 37° C. and 5% CO2. On the 5th day of the culture, the culture supernatant (100 μL) was removed, 15 μL of dye solution (MTT reagent) was added into each well, and the cells were cultured in a CO2 incubator for 1 hour. Subsequently, 100 μL of solubilization solution/stop mix was added into each well, mixed sufficiently, and the obtained mixture was left to stand at 4° C. overnight. After returning the temperature of the plate to room temperature, DD570/690 was measured with a spectrophotometer (BIO-TEK ELx808, CC50).

[7] = system: MT-4 cells; test: Cytotoxicity evaluation, MTT assay; format: cell-based; details: comparison in words from Table 1 (B)
Method: as §2

Structure (SMILES): C[Se]C1[C@@H](O)[C@@H](COP(O)(=N[C@@H](C)C(=O)OC(C)C)Oc2ccccc2)O[C@H]1n1cnc2c(N)ncnc21 (some centres unmarked) [Pro SelenoA]
- pEC50 [1]: 6.01
- anti-HIV activity compared with Lamivudine and Didanosine ([1]; comparison in words from Table 1 (A), all virus types): higher anti-HIV activity
- pEC50 [2]: 5.89
- anti-HIV activity compared with AZT ([3]; HIV-type M41L/T69SSG/T215Y, comparison in words from Table 1 (A)): more excellent anti-HIV activity
- pEC50 [3]: 5.85
- pEC50 [4]: 5.70
- anti-HBV activity, ranking among SelenoA, Pro SelenoA and Pro A ([5]; concentration of addition 10 μM): highest anti-HBV activity among these three kinds
- anti-HBV activity (HBV DNA) [5]: showed anti-HBV activity
- CC50 at 5 day [6]: > 100000 nM
- toxicity compared with AZT [7]: lower

Structure (SMILES): O=c1[nH]cnc2c1ncn2[C@H]1CC[C@@H](CO)O1 [Didanosine, didanosine, reference compound]
- pEC50 [1]: 5.49
- pEC50 [2]: 5.25
- pEC50 [3]: 4.77
- pEC50 [4]: 5.08

Structure (SMILES): CCCSSC1[C@@H](O)[C@@H](COP(O)(=N[C@@H](C)C(=O)OC(C)C)Oc2ccccc2)O[C@H]1n1cnc2c(N)ncnc21 (some centres unmarked) [Pro A]
- anti-HBV activity (HBV DNA) [5]: showed anti-HBV activity

Structure (SMILES): Nc1ccn([C@@H]2CS[C@H](CO)O2)c(=O)n1 [Lamivudine, lamivudine, reference compound]
- pEC50 [1]: 5.92
- pEC50 [2]: 5.77
- pEC50 [3]: 4.62
- pEC50 [4]: < 4.00

Structure (SMILES): Nc1ncnc2c1ncn2[C@@H]1O[C@H](CO)[C@@H](O)[C@H]1[SeH] [SelenoA, Seleno adenosine]
- anti-HBV activity (HBV DNA) [5]: showed anti-HBV activity
